Reference: US9701660B2, “2,6-diaminopyridine compounds suitable for treating diseases associated with amyloid or amyloid-like proteins or for treating or preventing ocular diseases or conditions associated with a pathological abnormality/change in the tissue of the visual system” (AC Immune S.A., priority 2009, dated 2017)
Values joined by “and” are separate entries in the source; they are usually repeats but may differ in a detail not shown here. Equal values may be shown once.

Experiments:
[1] = molecular target: T1, amyloid beta (Ab) 1-42 peptide (Homo sapiens, UniProt P05067); experiment: Inhibition of amyloid beta (Ab) 1-42 peptide aggregation (thioflavin T spectrofluorescence assay); assay type: biochemical; settings: for ThT assay at 330 mM % inhib.: small molecule to Ab1-42 10:1, 24 hrs at 37° C.; for biological activity (ThT assay) in words, compared to compound 1 / compounds according to the invention: comparison; for inhibition at 330 µM: mean of the two ThT assays at 330 µM, read-out: Mean % inhib.
T1 construct: amyloid beta (Ab) 1-42 peptide; purchased Bachem
T1 sequence (P05067 672-713 limits assumed): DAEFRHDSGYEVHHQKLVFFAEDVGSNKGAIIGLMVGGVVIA
Experimental: A number of small molecules were tested for their capacity to inhibit the aggregation of amyloid beta (Ab) 1-42 peptide using a thioflavin T spectrofluorescence assay.
Ab1-42 lyophilized powder (Bachem) was reconstituted in hexafluoroisopropanol (HFIP) to 1 mM. The peptide solution was sonicated for 15 min at room temperature, agitated overnight, and aliquots were placed in non-siliconized microcentrifuge tubes. The HFIP was then evaporated under a stream of argon. The resulting peptide film was dried under vacuum for 10 min, tightly sealed and stored at −80° C. until used.
Ab1-42 peptide film was dissolved in DMSO to reach 400 μM. Assay solution in PBS buffer was prepared in non-siliconized incubation tubes to reach the following concentrations: […] Ab1-42, 10 μM thioflavin T (ThT), and 12.8% DMSO. Therefore, the final molar ratio of small molecule to Ab1-42 was 10:1. A positive control without a small molecule was prepared to measure maximum RFU. A negative control without Ab1-42 was prepared for each small molecule. 3-Aminopyrazole trimer (Trimer) was tested in all assays to ascertain reproducibility between independent experiments. The solutions were incubated for 24 hrs at 37° C., and the spectrofluorescence (relative fluorescence units; RFU) read in six replicates in black 384-well assay plates (Perkin-Elmer) on a Perkin-Elmer FluoroCount spectrofluorometer. Inhibition of aggregation is expressed as mean % inhibition or ±1 standard deviation (SD) according to the following equation: % inhibition=(RFU of positive control−RFU of negative control)−(RFU of sample with Aβ-42−RFU of sample without Aβ1-42)×100 • (RFU of positive control−RFU of negative control)
Cut-off criteria for selection of functional molecules were defined at 50% inhibition capacity. Molecules showing an inhibition capacity over 70% were considered as very strong candidates.

[2] = Aqueous solubility in PBS (HPLC); assay type: physicochemical; settings: for solubility at 24 h: PBS 1x, 24 hours at room temperature; for solubility in words, compared to compound 1: comparison
Experimental: Method for measuring the solubility:
• Plate shaker, Centrifuge (Eppendorf, 8 cm radius), HPLC (Dionex P580), Column: Agilent Zorbax Eclipse XDB-C18 rapid resolution (4.6×50 mm, […], Agilent), Uncoloured microtubes 1.5 mL (Eppendorf, 1.5 mL), Micropipettes […], Micropipettes […], Dulbecco's phosphate buffer, DMSO, ammonium formate, formic acid 98-100%, UP-H2O, acetonitrile HPLC grade, methanol GR analysis, PVDF membrane filter. 2. Method 2.1 Preparation of PBS 5× (Stored at 4° C.) and PBS1× for Analysis • PBS 5× • Dissolved the full content of PBS salt (D-5652-10L) in 2 L of UP-H2O. • PBS1× • Before analysis, dilute 5 fold the PBS 5× in order to prepare 30 mL of PBS1× and filter the solution using a syringe and any hydrophilic membrane e.g. PVDF membrane. 2.2 Preparation of HPLC Solvent (Stored at RT) • Solvent A: 13.3 mM ammonium formate/6.5 mM formic acid/UP-water
Dissolve 820±1 mg of ammonium formate and 245 μL of formic acid in 1000 mL of UP-H2O. • Solvent B: 6.0 mM ammonium formate/2.9 mM formic acid/90% acetonitrile/10% UP-water • Dissolve 378±1 mg of ammonium formate and 110 μL of formic acid in 900 mL acetonitrile and 100 mL of UP-H2O. 2.3 Preparation of the Stock Solution of the Compound • Dissolve compound in DMSO at a concentration of 25 mM (minimum […]). 2.4 Preparation of Standard Curve • Prepare 15 mL of methanol/H2O (6/4). • Prepare 5 standard calibrators: 250 μM, 200 μM, 50 μM, 12.5 μM and 3.13 μM in methanol/H2O (6/4). • Make preparations of each standard concentration in 1.5 microtubes.
• Transfer directly 250-300 μL from each microtube to an HPLC vial. • Run HPLC (from microtubes #6 to #1), using the following conditions:
C18 column, 0.7 mL/min, 20° C., UV detection at 254 nm, volume injection: 20 μL and one of the following gradients: […]
2.5. Preparation of the Sample for Aqueous Solubility • Prepare Samples of the Compound in Triplicates
• Shake it gently (350 rpm) for 24 hours at room temperature. • After the incubation time, centrifuge at 2500 g (5500 rpm) for 30 min. • Sample 200 μL of supernatant for HPLC analysis using the same conditions described in 2.4. 2.6. Data Treatment • Integrate area of each standard point peak at 254 nm. • Determine the standard curve for the compound by plotting the area vs. the theoretical concentration. Establish the standard curve equation based on a linear regression (with an intercept at 0, R^2≧0.90). y(area)=slope×x(concentration) • Calculate the average area of each triplicate prepared in aqueous phase.
The concentration of the compound in the supernatant is determined by the following formula: […]
The solubility of the compound is determined by the following formula: […]

[3] = test system: retinal ganglion cells (RGCs); experiment: Rat model of chronic ocular hypertension (OHT)/glaucoma; assay type: in vivo, Dark Agouti rats; settings: for number of viable RGCs: 3 weeks after intra-vitreal injection in the OHT eye, in comparison to the control group, p<0.001; for reduction of intraocular pressure: at 3 weeks, Tonopen
Experimental: A rat model of chronic ocular hypertension (OHT)/glaucoma was created by injecting hypertonic saline into the episcleral veins of one eye of Dark Agouti rats. 18 rats received an intra-vitreal injection containing a volume of 5 μL of compound 1 (ACI-260) at a concentration of 74 mg/L in the OHT eye. 18 rats served as negative control and received 5 μl of saline and 18 rats served as positive control and received 6 μL Congo Red (1.46 mg/mL). 6 animals/timepoint were euthanized at 3, 8 and 16 weeks after treatment.
Intraocular pressure (IOP) was measured using a Tonopen once every 4 weeks post dosing and prior to sacrifice (within 3 days). 5 to 7 days prior to sacrifice, animals were injected intra-cerebrally with 5 μL of 4% FluoroGold to label the retinal ganglion cells (RGCs). In order to quantify viable RGCs, images were processed using a specific system of image analysis software and viable RGCs were expressed per square millimeter.

[4] = molecular target: T1, amyloid beta (Ab) 1-42 peptide; experiment: Inhibition of amyloid beta (Ab) 1-42 peptide aggregation (thioflavin T spectrofluorescence assay); assay type: biochemical; settings: mean of 2 experiments; Ab1-42 aggregation, 24 hrs at 37° C.; read-out: IC50 ThT-assay
[5] = PBS 1x (Dulbecco's phosphate buffer), aqueous buffer, kinetic from dmso stock, table with IC50
[6] = PBS 1x (Dulbecco's phosphate buffer), aqueous buffer, kinetic from dmso stock, table with % inhib.

| ThT assay at 330 mM % inhib. ([1]; experiment 1) | ThT assay at 330 mM % inhib. ([1]; experiment 2) | IC50 [4] | biological activity (ThT assay) in words, compared to compound 1 / compounds according to the invention [1] | solubility at 24 h [2, 6] | solubility in words, compared to compound 1 [2] | Compound | further results |
| --- | --- | --- | --- | --- | --- | --- | --- |
|  |  | 35.3 µM |  |  |  | CNc1cccc(CCNc2cccc(NCCc3ccccn3)n2)n1 [Compound 3] | solubility at 24 h [2, 5]: 206 µM and 71 µg/mL |
|  |  | 16.5 µM |  |  |  | CNc1cccc(NCCCc2cccc(NCCCc3ccccn3)n2)n1 [Compound 4] | solubility at 24 h [2, 5]: 38 µg/mL; solubility at 24 h ([2]; table with IC50): 103 µM |
|  |  | 140 µM | significantly decreased |  |  | CNc1cccc(CCNc2cccc(CCNc3ccccn3)n2)n1 [Compound 5] |  |
| 68.4% | 59.0% |  | significantly reduced activity |  |  | CNc1cccc(NCCc2ccccn2)n1 [Compound 6] | inhibition at 330 µM [1]: 63.7% |
| 91.8% | 93.4% |  | comparable activity to compound 1 | 154 µM and 57 µg/mL | worse | c1ccc(CCNc2cccc(NCCc3ccc4c(n3)NCCC4)n2)nc1 [Compound 9] |  |
|  |  | 298 µM |  |  |  | CNc1cccc(CCNc2cccc(CCN(c3ccccn3)c3ccccn3)n2)n1 [Compound 13] |  |

The next lines start with the molecule.

| Compound | ThT assay at 330 mM % inhib. ([1]; experiment 1) | ThT assay at 330 mM % inhib. ([1]; experiment 2) | IC50 [4] | biological activity (ThT assay) in words, compared to compound 1 / compounds according to the invention [1] | solubility at 24 h [2, 6] | solubility in words, compared to compound 1 [2] | further results |
| --- | --- | --- | --- | --- | --- | --- | --- |
| CNc1cccc(NCCc2cccc(NCCc3ccccn3)n2)n1 [Compound 1] | 88.8% | 79.6% | 25.5 µM |  |  |  | solubility at 24 h [2, 5]: 857 µM and 298 µg/mL; number of viable RGCs [3]: significantly increased; reduction of intraocular pressure [3]: not observed |
| CNc1cccc(NCCc2cccc(NCc3ccccn3)n2)n1 [Compound 2] |  |  | 12.9 µM |  |  |  |  |
| CNc1cccc(CCNc2cccc(NC)n2)n1 [Compound 7] | 77.6% | 70.3% |  | significantly reduced activity | 50 µg/mL |  | inhibition at 330 µM [1]: 74%; solubility at 24 h ([2]; table with % inhib.): 195 µM |
| CCCNc1ccc(NCc2ccc(NCc3ccc(NCCC)nc3)nc2)nc1 [Compound 8, reference compound] | 73.3% | 80.7% |  |  | 1 µM and 0.4 µg/mL | significantly worse |  |
| FC(F)(CNc1cccc(NCCc2ccccn2)n1)c1ccc2c(n1)NCCC2 [Compound 10] | 89.6% | 77.6% |  | comparable activity to compound 1 |  | worse |  |
| FC(F)(CNc1cccc(NCCc2ccc3c(n2)NCCC3)n1)c1ccccn1 [Compound 11] | 95.3% | 94.4% |  | comparable activity to compound 1 | 119 µM and 48 µg/mL | worse |  |
| FC(F)(CNc1cccc(NCC(F)(F)c2ccc3c(n2)NCCC3)n1)c1ccccn1 [Compound 12] | 56.4% | 63.7% |  | worse | 21.5 µM and 9.5 µg/mL | worse |  |
| Nc1c(/N=N/c2ccc(-c3ccc(/N=N/c4cc(S(=O)(=O)O)c5ccccc5c4N)cc3)cc2)cc(S(=O)(=O)O)c2ccccc12 [Congo Red, reference compound] |  |  |  |  |  |  | number of viable RGCs [3]: significantly increased; reduction of intraocular pressure [3]: not observed |
